Data on nine molecules can be found in US20230189790A1, “NON-FREEZING REFRIGERATED STORAGE LIQUID FOR STEM CELLS” (BIOVERDE INC., priority 2019, published 2023).

The test system of assay [1] is human iPS cells. Description: Relative survival rate after 6 days of refrigerated storage and 1 day of recovery culturing. The class given is cell-based. To be noted: for effectiveness in refrigerated storage (relative survival rate): 0.04 mM to 5.0 mM added to HTM-alpha without trolox and GlutaMAX, compared with trolox 2.0 mM. As to the method:
The HTM-alpha (UW solution + MEM-alpha, 2: 1) described in “2.” above, which has not been added with trolox and GlutaMAX (registered trademark, GIBCO), is used in FIGS. 6A and 2A. The effect of the addition of tocopherol (vitamin E) and tocopherol acetate (vitamin E derivative) in the non-freezing refrigerated storage was investigated by the same procedure as in case of trolox addition in the above. Tocopherol and tocopherol acetate were added so as to become 0.04 mM to 5.0 mM in the same manner as the trolox addition, and refrigerated storage was performed. At this time, a sample to which trolox at 2.0 mM, which is a water-soluble vitamin E analog, was added was also tested at the same time. FIG. 6D summarizes the relative survival rates after 6 days of the storage and 1 day of recovery cultivation.
Here, the effect of adding polyvinyl alcohol (PVA) instead of hydroxyethyl starch (HES) was investigated. Here, the composition of the UW solution shown in Table 1 above, excluding hydroxyethyl starch (HES), was adopted. Thus, the other components are same with those in the HTM-alpha (UW solution + MEM-alpha, 2: 1) while polyvinyl alcohol (PVA) in the range of 0.25% to 2.5% (weight) were added in the storage liquids used here. The cell viability was evaluated in the same manner as in the case of FIG. 6D above. That is, the protective effect of polyvinyl alcohol (PVA) was examined by the same procedure as in FIGS. 6A and 2A. At this time, a sample having a hydroxyethyl starch (HES) concentration of 5% (weight) was also tested at the same time. FIG. 12A summarizes the relative survival rates after 6 days of the refrigerated storage and 1 day of recovery culturing. […] It should be noted that polyvinyl alcohol (PVA) is cheaper than hydroxyethyl starch (HES), and is considered to be safer for living tissues.
Next, in the same manner as in “13.” above, mannitol was added together with polyvinyl alcohol (PVA), and the synergistic effect was verified. […]

The test system of assay [2] is human iPS cell line (253G1). Description: Non-freezing refrigerated storage in single cell state at 4° C., survival rate by trypan blue. The assay is classed as cell-based. To be noted: for effect of antioxidant/radical scavenger on ST80 (ranking): added to HTM1 at various concentrations; for 80% survival-rate maintenance days (ST80): single cell state, 4° C. From the text: A healthy human-derived human iPS cell line (253G1) obtained from the Center for iPS Cell Research and Application, Kyoto University was maintained and cultured under feeder-free conditions. For this culture, StemFit (registered trademark) AK02N (Ajinomoto), which is a commercially available medium for clinical research for human ES/iPS cells was used. When the cells reached 70-80% confluence on the 7th day after the start of the culture, the cells were enzymatically stripped off from a container by using 0.5X TrypLE® Select, and then dispersed and washed. Subsequently, the cells were suspended in a new StemFit® AK02N medium containing 10 µM Y27362 (Fujifilm Wako Pure Chemical Industries, Ltd.) as a ROCK inhibitor, and added with iMatrix-511 (MATRIXOME, Inc.) as a further cell culture substrate at 0.1 µg/cm^2. Then, the cells were seeded at a concentration of 1.3E3/cm^2 (1.3 ×10^3/cm^2). The day after the seeding, the medium was replaced with StemFit® AK02N medium containing no Y27362, then the medium was replaced every 3 days and subcultured or tested on day 7.
The human iPS cells obtained in “1.” above are added into the refrigerated storage liquids HTM1 and HTM2 in “2.” above to be suspended at 1E6 cells/mL (number of floating cells 1x10^6 cells/mL) in a cell state. Then, the suspensions were placed into a plastic tube and allowed to stand at 4° C. for storage. The survival rate was determined by counting the number of living cells after staining with trypan blue.
The statistical processing in the examples of the present application was performed as follows. The survival rate maintenance curves in FIGS. 1A and 2B were obtained by using “R ver 3.5.1” to fit the four-variable logistic curve. The 1way ANOVA and Bonferoni and Dunnetts tests were calculated using “Graphpad Prism 5.04”.
Antioxidants or radical scavengers were added to HTM1 at various concentrations and subjected to the non-freezing refrigerated storage test as described in “3.” above. The added antioxidants or radical scavengers are shown in FIG. 5A and are: Trolox (Trx, Wako), EGCG (Teavigo®, DSM), N-acetylcysteine (NAC, Tokyo Kasei), L-ascorbic acid (AA, WAKO)), and edaravone (3-Methyl-1-phenyl-2-pyrazoline-5-one, Sigma).

In assay [3] the test system is human iPS cells. Description: Refrigerated storage in adhesive state (1): proliferation on recultivation for 4 days. The assay is classed as cell-based. As for the experimental part:
Human iPS cells obtained in the same manner as in “1.” above were used. However, at the final stage of culturing, the cells were seeded at a slightly lower concentration (1.0E3/cm^2) than the maintenance culture of “1.” above, and the day after this seeding, culture medium was replaced by StemFit® A[…] medium containing no Y27362. Then, the medium was removed 4 days after the seeding. Subsequently, the medium was replaced with HTM1 which is for the non-freezing refrigerated storage, and the medium with the cells was left to stand for 3 or 6 days under 4° C. In other words, in a state the cells were aggregated and adhered to each other, the cells were stored in non-freezing refrigerated condition for 3 days or 6 days. Trolox was added to HTM1, which is the medium for refrigerated storage. […] A UW solution (BELZER UW (registered trademark) COLD STORAGE LIQUID) was also used as the refrigerated storage medium of the comparative example. The cells after the non-freezing refrigerated storage were lightly washed with culture medium after the refrigerated storage medium were removed. Then, StemFit® A[…] medium was added and culturing was made for 4 days. At the end of this culturing, cells were enzymatically detached (by using 0.5X TrypLE® Select), and dispersed so that number of viable cells are counted. Then, it was compared with the number of cells at the start of refrigerated storage. In addition, after taking a phase difference image at the end and start of the culturing, image processing was performed with ImageJ to extract and binarize the colony area, and the colony area was measured to evaluate the proliferative ability. The above experiment was aimed at developing a refrigerated storage method in a state iPS cells were adhered, and proliferative ability (colony forming ability) subsequent to culturing for 4 days after the non-freezing refrigerated storage for 3 or 6 days. FIGS. 7A-7B show images of colonies obtained by the […] for 4 days after 3 days of the refrigerated storage, and FIGS. 7C-7D show images of colonies obtained by recultivation for 4 days after he refrigerated storage for 6 days. Here, FIGS. 7A and 7C are phase differentiation images, and binarized images of these are shown in FIGS. 7B and 7D, respectively. […] Further, in the bar graphs of FIGS. 7F and 8, the rate of increase in the number of colonies when recultivated for 4 days after the refrigerated storage for 3 days and 6 days. In the graph, the rate for a control, which is for cell not subjected to the refrigerated storage, is taken as “1” or 100%.

Assay [4] relates to mouse blastocyst stage embryos. Description: Refrigerated storage of mouse embryos: escape from the zona pellucida. The class given is cell-based, mouse (ICR). As to conditions: 14 µM to 140 µM; low temperature storage for 5 days and 7 days. As to the method:
On the other hand, in order to try non-freezing refrigerated storage of mouse embryos (FIGS. 10 to 11), in vitro fertilization was performed by ova and sperms from female and male mice (both ICR), and then embryos were cultured for 3.5 days (84 hours). Here, HTF (Fuji Film Wako Pure Chemical Industries, Ltd.) was used as the medium for insemination, and KSOM (Arc Resource) was used for culturing.
As described above, a blastocyst stage embryo 3.5 days after in vitro fertilization was immediately used as it was, and a refrigerated storage experiment was conducted. Specifically, for this blastocyst stage embryo, the medium was replaced with the HTM-alpha, HTM1, and HTS FRS as used in the above “11.” and the UW solution, in respective experiments. […] Both of HTM-alpha and HTM1 here are obtained by adding 5 mM Trolox and 5-fold concentration (x5; 10 mM) GlutaMAX (registered trademark) in the same manner as in “11.” above.
Next, the effect of adding adenine hydrochloride (Tokyo Kasei) was investigated in the same manner as in FIGS. 7E to 7F. That is, under the same conditions as in the experiment of FIG. 10, the rate of embryos that escaped the zona pellucida when Adenine hydrochloride (Tokyo Kasei) was added at each concentration was determined.

In assay [5] the test system is human iPS cells. Description: Colony forming ability (relative colony efficiency) after refrigerated storage for 6 days and culturing for 5 days. The class given is cell-based. To be noted: 6 days storage, 5 days culturing. As to the method: The cell proliferation ability after non-freezing refrigerated storage was verified as follows. First, the human iPS cells obtained in the above “1.” were placed into the refrigerated storage liquid HTM1 of the above “2.” and stored in the non-freezing refrigerated state for 6 days as in the above “3.”. The cells were then suspended in StemFit® AK02N medium containing 10 µM Y27362, into which iMatrix-511 was added by 0.1 µg/cm^2. and seeded at a concentration of 1.3E3/cm^2. On 5th day of culturing, the cells were stained with fixed alkaline phosphatase, and then the number of colonies formed to a certain size or larger was measured using a colony counter. The number of colonies when cultured for 5 days without being subjected to the refrigerated storage was similarly measured and used as a control. Then, the number of colonies obtained by culturing for 5 days after the refrigerated storage was divided by the number of colonies in this control to obtain colony forming ability (Relative colony efficiency).
Next, in order to verify the proliferative ability after refrigerated storage and recultivation, cells having been stored in the refrigerated state for 6 days were seeded in the same manner as in “4.” above, and the colony forming ability on the 5th day of culturing was compared. […] This obtained value was almost the same as that of the customary conventional slow-cooling cryoprerservation method placing the cell suspension in a freezer at -80° C.

Setting [6] is: additive 5 mM in HTM1, listed as trolox.

On to `OC[C@@H](O)[C@@H](O)[C@H](O)[C@H](O)CO` [mannitol], for which the “viability of the cells after refrigerated storage” value in the assay with human iPS cells [1] (30 mM to 90 mM together with 0.5% PVA in HTM-alpha without HES, compared with 5% HES) is “higher”.

`CC1=NN(c2ccccc2)C(=O)C1` [Edaravone, 3-Methyl-1-phenyl-2-pyrazoline-5-one]: the “effect of antioxidant/radical scavenger on ST80 (ranking)” value (shortened to “effect of antioxidant/radical scavenger”) in assay [2] was “second highest effect”.

For the molecule `O=C1O[C@H]([C@@H](O)CO)C(O)=C1O` [L-Ascorbic Acid, L-ascorbic acid], the “effect of antioxidant/radical scavenger” value in assay [2] was “did not show much effect”.

Consider `CC(=O)N[C@@H](CS)C(=O)O` [N-acetylcysteine], for which the “effect of antioxidant/radical scavenger” value in assay [2] was “third highest effect”.

Consider tocopherol, for which the “effectiveness in refrigerated storage (relative survival rate)” value in the assay on human iPS cells [1] is “less effective in refrigerated storage than trolox”.

Turning to `O=C(O[C@@H]1Cc2c(O)cc(O)cc2O[C@@H]1c1cc(O)c(O)c(O)c1)c1cc(O)c(O)c(O)c1` [EGCG], the “effect of antioxidant/radical scavenger” value in assay [2] was “third highest effect”.

Turning to `CC(=O)Oc1c(C)c(C)c2c(c1C)CCC(C)(CCC[C@H](C)CCC[C@H](C)CCCC(C)C)O2` (stereo partly drawn) [tocopherol acetate], the “effectiveness in refrigerated storage (relative survival rate)” value in the assay with human iPS cells [1] is “less effective in refrigerated storage than trolox”.

Take `Cl.Nc1ncnc2nc[nH]c12` [Adenine, adenine hydrochloride]: the “proliferation rate at recultivation” value in the assay on human iPS cells [3] (2.8 mM and 4.2 mM in HTM1 with Trolox 5 mM, storage 6 days) is “significantly increased”. In addition, the “growth rate at recultivation” value in the assay with human iPS cells [3] (8.2 mM in HTM1 with Trolox 5 mM, storage 6 days) is “decreased the growth rate”. Also, the “zona pellucida escape rate” value in assay [4] is “relatively high zona pellucida escape rate”.

For `Cc1c(C)c2c(c(C)c1O)CCC(C)(C(=O)O)O2` (stereo not drawn) [Trolox], the “ST80 compared with HTM1 with no trolox added” value in assay [2] (0.5 mM or more added to HTM1) is reported as “significantly higher”. The “ST80, dependence on addition concentration” value in assay [2] (added to HTM1, concentration varied) is given as “increase approximately with increasing trolox concentrations”. The “effect of antioxidant/radical scavenger” value in assay [2] is “most effective”. Besides, in assay [2] (additive 5 mM in HTM1), the “survival rate maintenance days (ST80) as multiple of HTM1 alone” value is reported as “about 4 times”, the “survival rate maintenance days (ST80) as multiple of UW solution” value was 9.5 times and the “80% survival-rate maintenance days (ST80)” value is recorded as at least 20 days. In addition, in assay [2] (setting [6]), the “survival rate maintenance days (ST80) as multiple of HTM1 alone” value is given as 4.4 times and the “80% survival-rate maintenance days (ST80)” value is 20.11 days. Besides, in the assay on human iPS cells [5] (5.0 mM added to HTM1), the “colony forming ability as multiple of HTM1 alone” value was “about twice” and the “colony forming ability relative to control not subjected to refrigerated storage” value stood at 41.2%. Further, the “colony forming ability as multiple of HTM1 alone” value in the assay on human iPS cells [5] (5.0 mM added to HTM1, listed as trolox) is 2.3 times. Besides, in the assay on human iPS cells [5] (added to HTM1), the “colony forming ability, dependence on concentration” value is “increased depending on the concentration of trolox”. Further, the “cell proliferation rate at recultivation compared with control not refrigerated” value in the assay with human iPS cells [3] (5 mM added into HTM1, storage 3 days) is given as “almost the same value as that in the control”. For the same molecule, the “cell proliferation rate at recultivation relative to control not refrigerated” value in the assay with human iPS cells [3] (5 mM added into HTM1, storage 6 days) is “about 10%”.
